According to patent US8106208B2, “Benzamide compounds that act as NK receptor antagonists” (Albireo AB, priority 2006, dated 2012):

Experiments:
human NK1 receptor = molecular target: T1, human NK1 receptor (Homo sapiens, UniProt P25103); experiment: FLIPR assay, inhibition of human NK1 receptor activation (intracellular Ca2+ increase); type: cell-based; details: CHO cells with human NK1 receptor; agonist Substance P; pKB converted from IC50
T1 construct: expressed in transfected cells; from AstraZeneca R&D Wilmington
T1 sequence (P25103 whole entry): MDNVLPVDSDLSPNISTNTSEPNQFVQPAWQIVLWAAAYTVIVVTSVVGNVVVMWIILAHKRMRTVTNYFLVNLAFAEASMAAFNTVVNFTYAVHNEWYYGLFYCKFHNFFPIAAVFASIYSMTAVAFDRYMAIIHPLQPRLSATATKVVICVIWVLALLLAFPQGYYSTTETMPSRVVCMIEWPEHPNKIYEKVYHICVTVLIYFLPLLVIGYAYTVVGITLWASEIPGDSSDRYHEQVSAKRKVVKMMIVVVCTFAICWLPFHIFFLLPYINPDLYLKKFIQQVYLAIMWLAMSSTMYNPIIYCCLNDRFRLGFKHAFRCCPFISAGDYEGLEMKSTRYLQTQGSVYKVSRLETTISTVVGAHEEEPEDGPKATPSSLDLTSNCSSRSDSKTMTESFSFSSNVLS
Protocol: (§1) Chinese Hamster Ovary (CHO) K1 cells (obtained from ATCC) were stably transfected with the human NK2 receptor (hNK2R cDNA in pRc/CMV, Invitrogen) or the human NK3 receptor (hNK3R in pcDNA 3.1/Hygro (+)/IRES/CD8, Invitrogen vector modified at AstraZeneca EST-Bio UK, Alderley Park). The cells were transfected with the cationic lipid reagent LIPOFECTAMINE™ (Invitrogen) and selection was performed with Geneticin (G418, Invitrogen) at 1 mg/ml for the hNK2R transfected cells and with Hygromycin (Invitrogen) at 500 μg/ml for the hNK3R transfected cells. Single cell clones were collected by aid of Fluorescence Activated Cell Sorter (FACS), tested for functionality in a FLIPR assay (see below), expanded in culture and cryopreserved for future use. CHO cells stably transfected with human NK1 receptors originates from AstraZeneca R&D, Wilmington USA. Human NK1 receptor cDNA (obtained from RNA-PCR from lung tissue) was subcloned into pRcCMV (Invitrogen). Transfection was performed by Calcium Phosphate and selection with 1 mg/ml G418. […]
(§2) The activity of a compound of the invention to inhibit NK1/NK2/NK3 receptor activation measured as NK1/NK2/NK3 receptor mediated increase in intracellular Ca^2+ was assessed by the following procedure: […]

human NK2 receptor = molecular target: T2, human NK2 receptor (Homo sapiens, UniProt P21452); experiment: FLIPR assay, inhibition of human NK2 receptor activation (intracellular Ca2+ increase); type: cell-based; details: CHO cells with human NK2 receptor; agonist NKA; pKB converted from IC50
T2 construct: expressed in transfected cells
T2 sequence (P21452 1-398): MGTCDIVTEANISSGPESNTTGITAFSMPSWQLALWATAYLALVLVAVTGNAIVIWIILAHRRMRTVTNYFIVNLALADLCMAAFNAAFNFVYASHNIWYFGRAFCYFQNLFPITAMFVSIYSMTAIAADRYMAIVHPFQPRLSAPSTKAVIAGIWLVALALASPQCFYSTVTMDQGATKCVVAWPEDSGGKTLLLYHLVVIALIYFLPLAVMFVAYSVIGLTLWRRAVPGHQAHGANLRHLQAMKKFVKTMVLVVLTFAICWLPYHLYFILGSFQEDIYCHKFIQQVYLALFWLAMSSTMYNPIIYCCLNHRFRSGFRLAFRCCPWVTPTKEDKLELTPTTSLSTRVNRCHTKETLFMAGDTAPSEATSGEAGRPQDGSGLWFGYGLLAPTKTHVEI
Protocol: as §1, §2

human NK3 receptor = molecular target: T3, human NK3 receptor (Homo sapiens, UniProt P29371); experiment: FLIPR assay, inhibition of human NK3 receptor activation (intracellular Ca2+ increase); type: cell-based; details: CHO cells with human NK3 receptor; agonist Pro-7-NKB; pKB converted from IC50
T3 construct: expressed in transfected cells
T3 sequence (P29371 1-465): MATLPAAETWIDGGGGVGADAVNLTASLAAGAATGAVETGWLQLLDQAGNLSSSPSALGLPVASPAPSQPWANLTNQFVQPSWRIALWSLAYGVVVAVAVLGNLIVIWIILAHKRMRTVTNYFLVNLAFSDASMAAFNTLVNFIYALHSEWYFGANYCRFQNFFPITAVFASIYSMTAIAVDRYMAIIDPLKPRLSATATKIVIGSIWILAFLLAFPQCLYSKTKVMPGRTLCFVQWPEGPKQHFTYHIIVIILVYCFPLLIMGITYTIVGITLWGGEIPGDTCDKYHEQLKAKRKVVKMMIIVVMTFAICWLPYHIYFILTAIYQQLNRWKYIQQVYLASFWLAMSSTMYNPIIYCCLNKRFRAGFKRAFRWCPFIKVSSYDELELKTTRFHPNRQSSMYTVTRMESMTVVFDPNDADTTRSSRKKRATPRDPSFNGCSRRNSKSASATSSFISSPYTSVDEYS
Protocol: as §1, §2

[1] = molecular target: hERG-encoded potassium channel (Homo sapiens, UniProt Q12809); experiment: Activity against hERG (planar-array-based voltage clamp, Kiss et al.); type: cell-based
Sequence of hERG-encoded potassium channel (Q12809 whole entry): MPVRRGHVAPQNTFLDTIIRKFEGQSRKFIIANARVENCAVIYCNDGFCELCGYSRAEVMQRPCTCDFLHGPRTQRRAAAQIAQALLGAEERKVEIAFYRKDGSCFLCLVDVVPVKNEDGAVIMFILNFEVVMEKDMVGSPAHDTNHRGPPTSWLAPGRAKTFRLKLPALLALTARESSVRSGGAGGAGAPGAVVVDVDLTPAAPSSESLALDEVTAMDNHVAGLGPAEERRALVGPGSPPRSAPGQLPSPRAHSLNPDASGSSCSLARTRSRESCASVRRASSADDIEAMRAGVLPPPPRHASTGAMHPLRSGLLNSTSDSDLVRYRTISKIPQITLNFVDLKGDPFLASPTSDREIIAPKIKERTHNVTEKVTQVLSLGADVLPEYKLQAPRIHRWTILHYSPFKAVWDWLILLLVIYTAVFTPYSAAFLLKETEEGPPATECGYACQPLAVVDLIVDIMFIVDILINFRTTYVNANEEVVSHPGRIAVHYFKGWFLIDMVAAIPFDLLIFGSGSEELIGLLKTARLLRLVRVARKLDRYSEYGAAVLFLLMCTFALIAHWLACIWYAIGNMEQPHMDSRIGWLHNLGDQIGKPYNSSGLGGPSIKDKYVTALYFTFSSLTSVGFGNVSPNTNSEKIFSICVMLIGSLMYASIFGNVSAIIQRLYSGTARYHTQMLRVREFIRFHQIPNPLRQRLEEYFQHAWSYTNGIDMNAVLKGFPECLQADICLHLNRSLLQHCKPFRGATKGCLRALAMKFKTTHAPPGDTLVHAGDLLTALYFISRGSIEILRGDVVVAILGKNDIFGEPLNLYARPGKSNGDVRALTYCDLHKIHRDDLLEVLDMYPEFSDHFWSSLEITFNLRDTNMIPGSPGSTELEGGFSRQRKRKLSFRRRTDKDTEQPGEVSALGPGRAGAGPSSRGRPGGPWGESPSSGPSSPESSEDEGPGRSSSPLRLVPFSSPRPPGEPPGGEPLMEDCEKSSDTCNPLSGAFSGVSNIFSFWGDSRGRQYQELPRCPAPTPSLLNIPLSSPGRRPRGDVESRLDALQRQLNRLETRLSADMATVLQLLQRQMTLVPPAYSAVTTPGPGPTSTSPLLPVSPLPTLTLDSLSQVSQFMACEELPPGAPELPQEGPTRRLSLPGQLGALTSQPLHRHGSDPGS
Excerpt: The activity of compounds according to formula I against the hERG-encoded potassium channel can be determined according to Kiss L, et al. Assay Drug Dev Technol. 1 (2003), 127-35: “High throughput ion-channel pharmacology: planar-array-based voltage clamp”.

CYP3A4 = CYP3A4 (Homo sapiens, UniProt P08684); experiment: CYP3A4 inhibition (according to Bapiro et al.); type: in vitro ADME
Sequence of CYP3A4 (P08684 whole entry): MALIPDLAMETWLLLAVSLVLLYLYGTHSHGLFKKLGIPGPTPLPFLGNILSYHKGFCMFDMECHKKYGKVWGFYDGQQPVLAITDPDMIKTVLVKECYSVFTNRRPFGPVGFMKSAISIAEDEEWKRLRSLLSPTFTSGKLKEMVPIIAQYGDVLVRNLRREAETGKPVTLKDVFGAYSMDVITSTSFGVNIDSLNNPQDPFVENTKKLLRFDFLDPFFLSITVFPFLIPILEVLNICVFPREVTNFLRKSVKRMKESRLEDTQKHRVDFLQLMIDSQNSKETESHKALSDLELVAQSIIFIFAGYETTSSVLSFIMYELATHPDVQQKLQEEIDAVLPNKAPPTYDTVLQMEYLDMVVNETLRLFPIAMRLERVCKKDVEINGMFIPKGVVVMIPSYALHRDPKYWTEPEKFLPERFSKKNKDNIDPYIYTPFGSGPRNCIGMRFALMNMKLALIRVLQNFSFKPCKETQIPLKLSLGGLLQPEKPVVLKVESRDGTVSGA
Protocol: The IC50 values tested according to Bapiro et al; Drug Metab. Dispos. 29, 30-35 (2001) were generally greater than 10 μM.

[2] = Metabolic stability in liver microsomes (intrinsic clearance); type: in vitro ADME; details: human, pH 7.4, 37° C., read-out: CLint (HLM)
Protocol: The rate of biotransformation can be measured as either metabolite(s) formation or the rate of disappearance of the parent compound. The experimental design involves incubation of low concentrations of substrate (usually 1.0 μM) with liver microsomes (usually 0.5 mg/ml) and taking out aliquots at varying time points (usually 0, 5, 10, 15, 20, 30, 40 min.). The test compound is usually dissolved in DMSO. The DMSO concentration in the incubation mixture is usually 0.1% or less since more solvent can drastically reduce the activities of some CYP450s. Incubations are done in 100 mM potassium phosphate buffer, pH 7.4 and at 37° C. Acetonitrile or methanol is used to stop the reaction. The parent compound is analysed by HPLC-MS. From the calculated half-life, t1/2, the intrinsic clearance, Clint, is estimated by taking microsomal protein concentration and liver weight into account.

[3] = test system: Human Neurokinin-2 (NK2) Receptor; details: Bioorganic & Medicinal Chemistry Letters (2003), 13, 2211-2215; cited from earlier work

SMILES | Kb (human NK1 receptor) [µM] | Kb (human NK2 receptor) [µM] | Kb (human NK3 receptor) [µM] | IC50 [1] [µM] | IC50 (CYP3A4) [µM] | microsomal CLint at 1 μM [2] [µL/min/mg] | functional NK2 receptor antagonistic properties [3]
CN(C[C@@H](CCN1CC(N2CCC(C(=O)N3CCC3)CC2)C1)c1ccc(F)cc1)C(=O)c1cc(Br)cc(C(F)(F)F)c1 [Ex 1, N-[(2S)-4-{3-[4-(Azetidin-1-ylcarbonyl)piperidin-1-yl]azetidin-1-yl}-2-(4-fluorophenyl)butyl]-3-bromo-N-methyl-5-(trifluoromethyl)benzamide] | 0.02 | 0.00251 | 0.00398 | 11 | 13.5 | 23 | 
CN(CC(CCN1CC(N2CCOCC2)C1)c1ccc(Cl)c(Cl)c1)C(=O)c1ccccc1 (stereo not shown) [N-[2-(3,4-dichlorophenyl)-4-(3-morpholin-4-ylazetidin-1-yl)butyl]-N-methylbenzamide] |  |  |  |  |  |  | functional NK2 receptor antagonistic properties
